Measured values from ChEMBL document CHEMBL1127973, “A comparative molecular field analysis derived model of the binding of taxol analogues to microtubules” (Bioorg Med Chem Lett, 1994).

Key:
Tubulin (Homo sapiens) [1] = target: T1, Tubulin (Homo sapiens) (UniProt P68371+Q9H4B7+P0DPH7+P68366+Q13509+Q71U36+P04350+Q3ZCM7+P07437+P68363+Q9BQE3+Q6PEY2+Q13885+Q9BVA1+Q9BUF5); assay: Binding affinity to microtubules, activity expressed as ID50 of compound/ID50 of paclitaxel; assay type: protein-complex assay
Tubulin (Homo sapiens) [2] = target: T1, Tubulin (Homo sapiens); assay: Binding affinity to microtubules, activity expressed as log 1/ID50 of compound/ID50 of paclitaxel; assay type: protein-complex assay

Compound	ID50 ratio (Tubulin (Homo sapiens) [1])	Log 1/ratio (Tubulin (Homo sapiens) [2])
CC(=O)O[C@@]12CO[C@@H]1C[C@H](O)[C@@]1(C)C(=O)[C@H](O)C3=C(C)[C@@H](OC(=O)[C@H](NC(=O)OC(C)(C)C)[C@@H](O)c4ccccc4)C[C@@](O)([C@@H](OC(=O)c4ccccc4)[C@H]21)C3(C)C	10	-1
CCCCOC(=O)N[C@@H](c1ccccc1)[C@@H](O)C(=O)O[C@H]1C[C@@]2(O)[C@@H](OC(=O)c3ccccc3)[C@@H]3[C@]4(OC(C)=O)CO[C@@H]4C[C@H](O)[C@@]3(C)C(=O)[C@H](OC(C)=O)C(=C1C)C2(C)C	0.8	0.0969
COc1ccc([C@H](NC(=O)c2ccccc2)[C@@H](O)C(=O)O[C@H]2C[C@@]3(O)[C@@H](OC(=O)c4ccccc4)[C@@H]4[C@]5(OC(C)=O)CO[C@@H]5C[C@H](O)[C@@]4(C)C(=O)[C@H](OC(C)=O)C(=C2C)C3(C)C)cc1	0.5	0.301
CC(=O)O[C@@]12CO[C@@H]1C[C@H](O)[C@@]1(C)C(=O)[C@H](O)C3=C(C)[C@@H](OC(=O)[C@H](O)[C@@H](NC(=O)CCCC(=O)O)c4ccccc4)C[C@@](O)([C@@H](OC(=O)c4ccccc4)[C@H]21)C3(C)C	1	0
CC(=O)O[C@@]12CO[C@@H]1C[C@H](O)[C@@]1(C)C(=O)[C@H](O)C3=C(C)[C@@H](OC(=O)[C@@H](NC(=O)c4ccccc4)[C@H](O)c4ccccc4)C[C@@](O)([C@@H](OC(=O)c4ccccc4)[C@H]21)C3(C)C	170	-2.23
CC(=O)O[C@H]1C(=O)[C@@]2(C)[C@H]([C@H](OC(=O)c3ccccc3)[C@]3(O)C[C@H](OC(=O)[C@H](O)[C@@H](NC(=O)c4ccccc4)c4ccccc4)C(C)=C1C3(C)C)[C@]1(OC(C)=O)CO[C@@H]1C[C@@H]2O (stereo in doubt; 14)	0.8	0.0969
CC(=O)O[C@H]1C(=O)[C@@]2(C)[C@H]([C@H](OC(=O)c3ccccc3)[C@]3(O)C[C@H](OC(=O)[C@H](O)[C@@H](NC(=O)c4cccc(Cl)c4)c4ccccc4)C(C)=C1C3(C)C)[C@]1(OC(C)=O)CO[C@@H]1C[C@@H]2O	2	-0.301
CC(=O)O[C@H]1C(=O)[C@@]2(C)[C@H]([C@H](OC(=O)c3ccccc3)[C@]3(O)C[C@H](OC(=O)[C@H](O)[C@@H](NC(=O)c4ccccc4)c4ccc(O)cc4)C(C)=C1C3(C)C)[C@]1(OC(C)=O)CO[C@@H]1C[C@@H]2O	0.8	0.0969
C/C=C/C(=O)O[C@H]1C[C@@]2(O)[C@@H](OC(=O)c3ccccc3)[C@@H]3[C@]4(OC(C)=O)CO[C@@H]4C[C@H](O)[C@@]3(C)C(=O)[C@H](OC(C)=O)C(=C1C)C2(C)C	100	-2
CC(=O)O[C@H]1C(=O)[C@@]2(C)[C@H]([C@H](OC(=O)c3ccccc3)[C@]3(O)C[C@H](OC(=O)[C@@H](O)[C@H](NC(=O)OC(C)(C)C)c4ccccc4)C(C)=C1C3(C)C)[C@]1(OC(C)=O)CO[C@@H]1C[C@@H]2O	30	-1.48
CC(=O)O[C@H]1C(=O)[C@@]2(C)[C@H]([C@H](OC(=O)c3ccccc3)[C@]3(O)C[C@H](OC(=O)[C@H](NC(=O)OC(C)(C)C)[C@@H](O)c4ccccc4)C(C)=C1C3(C)C)[C@]1(OC(C)=O)CO[C@@H]1C[C@@H]2O	10	-1
CC(=O)O[C@H]1C(=O)[C@@]2(C)[C@H]([C@H](OC(=O)c3ccccc3)[C@]3(O)C[C@H](OC(=O)[C@H](O)[C@@H](NC(=O)c4ccc(C(F)(F)F)cc4)c4ccccc4)C(C)=C1C3(C)C)[C@]1(OC(C)=O)CO[C@@H]1C[C@@H]2O	6	-0.778
CC(=O)O[C@H]1C(=O)[C@]2(C)[C@@H](OC(=O)c3ccccc3)C[C@H]3OC[C@@]3(OC(C)=O)[C@H]2[C@H](OC(=O)c2ccccc2)[C@]2(O)C[C@H](OC(=O)[C@H](O)[C@@H](NC(=O)c3ccccc3)c3ccccc3)C(C)=C1C2(C)C	1.7	-0.23
